What follows are molecules tested on Copepodids (juvenile sea lice stage of Lepeophtheirus salmonis) (assay: Juvenile sea lice contact assay). Conditions: 24 h, read-out: Sea lice inhibition (% of dead+damaged copepodids).
Description: Copepodids (juvenile sea lice stage of Lepeophtheirus salmonis) were exposed to seawater spiked with declining concentrations of a test compound (dissolved in a DMSO sea-water mixture). Sea lice inhibition (% of dead+damaged copepodids) was assessed after approximately 24 hours of continuous exposure. The vitality of used parasites was confirmed in a negative (solvent) control group.

In the case of `O=C(Nc1ccc(F)cc1)c1cc(NC(=O)C2C(c3cc(Cl)cc(Cl)c3)C2(Cl)Cl)ccc1F` (centres unmarked) [Compound 1003], the inhibition at 0.1 µM is reported as no less than 80%.

`O=C(Nc1ccc(F)cc1F)c1cc(NC(=O)[C@H]2[C@H](c3ccc(F)c(Cl)c3)C2(Cl)Cl)ccc1Cl` [Compound 1087] and `O=C(Nc1ccc(F)cc1)c1cc(NC(=O)[C@H]2[C@H](c3cc(Cl)cc(Cl)c3)C2(Cl)Cl)ccc1F` [Compound 1090] are the same in inhibition at 0.001 µM: 100% for the first, 100% for the second.

Same assay, conditions: test concentration 10 nM, approx. 24 hours continuous exposure, read-out: Sea lice inhibition (% of dead+damaged copepodids)

Going from `Cc1ccccc1NC(=O)c1cc(NC(=O)C2C(c3cc(Cl)cc(Cl)c3)C2(Cl)Cl)ccc1Cl` (centres unmarked) [Compound 1000] to `O=C(Nc1ccccc1)c1cc(NC(=O)C2C(c3cc(Cl)cc(Cl)c3)C2(Cl)Cl)ccc1Cl` (centres unmarked) [Compound 1004], the inhibition at 0.01 µM falls from 100% to 80%.

Compared with `O=C(Nc1c(F)cccc1F)c1cc(NC(=O)C2C(c3cc(Cl)cc(Cl)c3)C2(Cl)Cl)ccc1Cl` (centres unmarked) [Compound 1007], `N#Cc1ccc(NC(=O)c2cc(NC(=O)C3C(c4cc(Cl)cc(Cl)c4)C3(Cl)Cl)ccc2Cl)cn1` (centres unmarked) [Compound 1011] is higher in inhibition at 0.01 µM: 80% for the first, 100% for the second.

`O=C(Nc1cncnc1)c1cc(NC(=O)C2C(c3cc(Cl)cc(Cl)c3)C2(Cl)Cl)ccc1Cl` (centres unmarked) [Compound 1038] and `O=C(Nc1ccc(F)cc1F)c1cc(NC(=O)C2C(c3cc(C(F)(F)F)cc(C(F)(F)F)c3)C2(Cl)Cl)ccc1Cl` (centres unmarked) [Compound 1386] are the same in inhibition at 0.01 µM: 80% for the first, 80% for the second.

Same assay, conditions: test concentration 100 nM, approx. 24 hours continuous exposure, read-out: Sea lice inhibition (% of dead+damaged copepodids)

`Cc1ccc(NC(=O)C2C(c3cc(Cl)cc(Cl)c3)C2(Cl)Cl)cc1C(=O)Nc1ccc(F)cc1` (centres unmarked) [Compound 1001] and `O=C(Nc1ccc(F)cc1)c1cc(NC(=O)C2C(c3cc(Cl)cc(Cl)c3)C2(Cl)Cl)ccc1Cl` (centres unmarked) [Compound 1021] are the same in inhibition at 0.1 µM: 100% for the first, 100% for the second.

`N#Cc1cccc(NC(=O)c2cc(NC(=O)C3C(c4cc(Cl)cc(Cl)c4)C3(Cl)Cl)ccc2Cl)c1` (centres unmarked) [Compound 1005] and `O=C(Nc1cccnc1)c1cc(NC(=O)C2C(c3cc(Cl)cc(Cl)c3)C2(Cl)Cl)ccc1Cl` (centres unmarked) [Compound 1008] are the same in inhibition at 0.1 µM: 100% for the first, 100% for the second.

`O=C(Nc1ccc(Cl)nc1)c1cc(NC(=O)C2C(c3cc(Cl)cc(Cl)c3)C2(Cl)Cl)ccc1Cl` (centres unmarked) [Compound 1010] and `COc1ccc(NC(=O)c2cc(NC(=O)C3C(c4cc(Cl)cc(Cl)c4)C3(Cl)Cl)ccc2Cl)cn1` (centres unmarked) [Compound 1075] are the same in inhibition at 0.1 µM: 100% for the first, 100% for the second.

`Cc1cc(Cl)cc(C2C(C(=O)Nc3ccc(Cl)c(C(=O)Nc4ccc(F)cc4)c3)C2(Cl)Cl)c1` (centres unmarked) [Compound 1016] and `Cc1cc(Cl)cc(C2C(C(=O)Nc3ccc(Cl)c(C(=O)Nc4c(F)cccc4F)c3)C2(Cl)Cl)c1` (centres unmarked) [Compound 1018] are the same in inhibition at 0.1 µM: 100% for the first, 100% for the second.

`CN(C(=O)c1cc(NC(=O)C2C(c3cc(Cl)cc(Cl)c3)C2(Cl)Cl)ccc1Cl)c1ccc(F)cc1` (centres unmarked) [Compound 1022] and `O=C(Nc1cccc(F)n1)c1cc(NC(=O)C2C(c3cc(Cl)cc(Cl)c3)C2(Cl)Cl)ccc1Cl` (centres unmarked) [Compound 1030] cannot be ordered by inhibition at 0.1 µM: no less than 80% for the first, no less than 80% for the second.

`N#Cc1cc(F)ccc1NC(=O)c1cc(NC(=O)C2C(c3cc(Cl)cc(Cl)c3)C2(Cl)Cl)ccc1Cl` (centres unmarked) [Compound 1026] and `N#Cc1cccc(F)c1NC(=O)c1cc(NC(=O)C2C(c3cc(Cl)cc(Cl)c3)C2(Cl)Cl)ccc1Cl` (centres unmarked) [Compound 1040] are the same in inhibition at 0.1 µM: 100% for the first, 100% for the second.

`O=C(Nc1ncc(F)cn1)c1cc(NC(=O)C2C(c3cc(Cl)cc(Cl)c3)C2(Cl)Cl)ccc1Cl` (centres unmarked) [Compound 1028] and `Cc1cc(F)cnc1NC(=O)c1cc(NC(=O)C2C(c3cc(Cl)cc(Cl)c3)C2(Cl)Cl)ccc1Cl` (centres unmarked) [Compound 1031] are the same in inhibition at 0.1 µM: 100% for the first, 100% for the second.

`Nc1cccc(NC(=O)c2cc(NC(=O)C3C(c4cc(Cl)cc(Cl)c4)C3(Cl)Cl)ccc2Cl)n1` (centres unmarked) [Compound 1045] and `Nc1cccc(NC(=O)c2cc(NC(=O)C3C(c4ccc(F)c(Cl)c4)C3(Cl)Cl)ccc2Cl)n1` (centres unmarked) [Compound 1046] are the same in inhibition at 0.1 µM: 100% for the first, 100% for the second.

`N#Cc1cc(Cl)cc(C2C(C(=O)Nc3ccc(Cl)c(C(=O)Nc4ncc(F)cc4F)c3)C2(Cl)Cl)c1` (centres unmarked) [Compound 1048] and `O=C(Nc1ncc(F)cc1F)c1cc(NC(=O)C2C(c3cc(Cl)cc(C(F)F)c3)C2(Cl)Cl)ccc1Cl` (centres unmarked) [Compound 1079] are the same in inhibition at 0.1 µM: 100% for the first, 100% for the second.

`O=C(Nc1cncc([N+](=O)[O-])c1)c1cc(NC(=O)C2C(c3cc(Cl)cc(Cl)c3)C2(Cl)Cl)ccc1Cl` (centres unmarked) [Compound 1051] and `Cc1cc(NC(=O)c2cc(NC(=O)C3C(c4cc(Cl)cc(Cl)c4)C3(Cl)Cl)ccc2Cl)cnc1F` (centres unmarked) [Compound 1064] are the same in inhibition at 0.1 µM: 100% for the first, 100% for the second.

`O=C(Nc1ccnc(Cl)c1)c1cc(NC(=O)C2C(c3cc(Cl)cc(Cl)c3)C2(Cl)Cl)ccc1Cl` (centres unmarked) [Compound 1055] and `COc1cc(NC(=O)c2cc(NC(=O)C3C(c4cc(Cl)cc(Cl)c4)C3(Cl)Cl)ccc2Cl)ccn1` (centres unmarked) [Compound 1069] cannot be ordered by inhibition at 0.1 µM: no less than 80% for the first, 100% for the second.

`O=C(Nc1ncc(F)c(I)c1F)c1cc(NC(=O)C2C(c3cc(Cl)cc(Cl)c3)C2(Cl)Cl)ccc1Cl` (centres unmarked) [Compound 1060] and `O=C(Nc1ncc(F)cc1F)c1cc(NC(=O)C2C(c3cc(Cl)c(Cl)c(Cl)c3)C2(Cl)Cl)ccc1Cl` (centres unmarked) [Compound 1384] are the same in inhibition at 0.1 µM: 100% for the first, 100% for the second.

`COc1ccc(NC(=O)c2cc(NC(=O)C3C(c4ccc(F)c(Cl)c4)C3(Cl)Cl)ccc2Cl)cn1` (centres unmarked) [Compound 1076] and `Nc1c(F)ccc(NC(=O)c2cc(NC(=O)C3C(c4cccc(Cl)c4)C3(Cl)Cl)ccc2Cl)c1F` (centres unmarked) [Compound 1248] cannot be ordered by inhibition at 0.1 µM: no less than 80% for the first, 100% for the second.

`O=C(Nc1ncc(F)cc1F)c1cc(NC(=O)C2C(c3ccc(Cl)c(C(F)F)c3)C2(Cl)Cl)ccc1Cl` (centres unmarked) [Compound 1080] and `O=C(Nc1ncc(F)cc1F)c1cc(NC(=O)C2C(c3ccc(C(F)F)c(Cl)c3)C2(Cl)Cl)ccc1Cl` (centres unmarked) [Compound 1083] are the same in inhibition at 0.1 µM: 100% for the first, 100% for the second.

`O=C(Nc1ncc(F)cc1F)c1cc(NC(=O)C2C(c3cc(F)cc(C(F)F)c3)C2(Cl)Cl)ccc1Cl` (centres unmarked) [Compound 1081] and `O=C(Nc1ncc(F)cc1F)c1cc(NC(=O)C2C(c3cccc(C(F)F)c3)C2(Cl)Cl)ccc1Cl` (centres unmarked) [Compound 1085] are the same in inhibition at 0.1 µM: 100% for the first, 100% for the second.

`O=C(Nc1ncc(F)cc1F)c1cc(NC(=O)C2C(c3ccc(F)c(C(F)F)c3)C2(Cl)Cl)ccc1Cl` (centres unmarked) [Compound 1082] and `Nc1c(F)ccc(NC(=O)c2cc(NC(=O)C3C(c4cccc(F)c4)C3(Cl)Cl)ccc2Cl)c1F` (centres unmarked) [Compound 1227] are the same in inhibition at 0.1 µM: 100% for the first, 100% for the second.

`Nc1c(F)ccc(NC(=O)c2cc(NC(=O)C3C(c4cc(F)cc(C(F)(F)F)c4)C3(Cl)Cl)ccc2Cl)c1F` (centres unmarked) [Compound 1132] and `Nc1c(F)ccc(NC(=O)c2cc(NC(=O)C3C(c4cccc(C(F)(F)F)c4)C3(Cl)Cl)ccc2Cl)c1F` (centres unmarked) [Compound 1243] are the same in inhibition at 0.1 µM: 100% for the first, 100% for the second.

`O=C(Nc1ccc2nccn2c1)c1cc(NC(=O)C2C(c3cc(Cl)cc(Cl)c3)C2(Cl)Cl)ccc1Cl` (centres unmarked) [Compound 1373] and `O=C(Nc1ncc(F)cc1F)c1c(Cl)ccc(NC(=O)C2C(c3cc(Cl)cc(Cl)c3)C2(Cl)Cl)c1F` (centres unmarked) [Compound 1381] are the same in inhibition at 0.1 µM: 100% for the first, 100% for the second.

`Cc1ccc(NC(=O)C2C(c3ccc(Cl)c(Cl)c3)C2(Cl)Cl)c(F)c1C(=O)Nc1ncc(F)cc1F` (centres unmarked) [Compound 1382] showed an inhibition at 0.1 µM of 100%.

Each molecule was assayed on Mobile stages of sea lice (pre-adults, adults of Lepeophtheirus salmonis) (assay: Adult sea lice contact assay). Conditions: pre-adult/adult L. salmonis, assessed after approx. 1 and 24 hours, time of EC50 not stated, read-out: EC50 (sea lice inhibition, dead+damaged).
Description: Mobile stages of sea lice (i.e., pre-adults, adults of Lepeophtheirus salmonis) were exposed to seawater spiked with declining concentrations of a test compound (dissolved in a PEG sea-water mixture). Sea lice inhibition (% of dead+damaged sea lice) was assessed after approximately 1 and 24 hours of continuous exposure in comparison to a negative (solvent) control group.

`O=C(Nc1c(F)cc(F)cc1F)c1cc(NC(=O)C2C(c3cc(Cl)cc(Cl)c3)C2(Cl)Cl)ccc1Cl` (centres unmarked) [Compound 1006] and `O=C(Nc1c(F)cc(F)cc1F)c1cc(NC(=O)[C@H]2[C@H](c3cc(Cl)cc(Cl)c3)C2(Cl)Cl)ccc1Cl` [Compound 1092] cannot be ordered by EC50: no more than 1 nM for the first, 1 to 25 nM for the second.

`O=C(Nc1c(F)cccc1F)c1cc(NC(=O)C2C(c3cc(Cl)cc(Cl)c3)C2(Cl)Cl)ccc1Cl` (centres unmarked) [Compound 1007] and `O=C(Nc1c(F)ccnc1F)c1cc(NC(=O)[C@H]2[C@H](c3cc(Cl)cc(Cl)c3)C2(Cl)Cl)ccc1Cl` [Compound 1367] cannot be ordered by EC50: 1 to 25 nM for the first, 1 to 10 nM for the second.

`O=C(Nc1ncc(F)cc1F)c1cc(NC(=O)[C@H]2[C@H](c3ccc(Cl)c(Cl)c3)C2(Cl)Cl)ccc1Cl` [Compound 1041] and `O=C(Nc1ncc(F)cc1F)c1cc(NC(=O)[C@H]2[C@H](c3ccc(F)c(Cl)c3)C2(Cl)Cl)ccc1Cl` [Compound 1042] fall in the same range of EC50: 1 to 10 nM for the first, 1 to 10 nM for the second.

`O=C(Nc1ccc(F)cc1F)c1cc(NC(=O)[C@H]2[C@H](c3cc(Cl)cc(Cl)c3)C2(Cl)Cl)ccc1F` [Compound 1091] and `O=C(Nc1ccc(F)cc1F)c1cc(NC(=O)[C@H]2[C@H](c3cc(F)c(F)c(F)c3)C2(Cl)Cl)ccc1Cl` [Compound 1094] fall in the same range of EC50: 1 to 10 nM for the first, 1 to 10 nM for the second.

`O=C(Nc1ncc(F)cc1F)c1cc(NC(=O)[C@H]2[C@H](c3cc(Cl)cc(Cl)c3)C2(Cl)Cl)ccc1Cl` [Compound 1097] and `O=C(Nc1cnc(F)cc1F)c1cc(NC(=O)[C@H]2[C@H](c3cc(Cl)cc(Cl)c3)C2(Cl)Cl)ccc1Cl` [Compound 1366] fall in the same range of EC50: 1 to 10 nM for the first, 1 to 10 nM for the second.

`Cc1cc(NC(=O)c2cc(NC(=O)[C@H]3[C@H](c4cc(Cl)cc(Cl)c4)C3(Cl)Cl)ccc2Cl)ncc1F` [Compound 1098] and `O=C(Nc1ncc(F)cn1)c1cc(NC(=O)[C@H]2[C@H](c3cc(Cl)cc(Cl)c3)C2(Cl)Cl)ccc1Cl` [Compound 1372] fall in the same range of EC50: 1 to 10 nM for the first, 1 to 10 nM for the second.

`O=C(Nc1cnc(F)cc1F)c1cc(NC(=O)[C@H]2[C@H](c3cc(Cl)c(Cl)c(Cl)c3)C2(Cl)Cl)ccc1Cl` [Compound 1380] showed an EC50 of 1 to 10 nM.

Same assay, conditions: read-out: EC50 (sea lice inhibition, dead+damaged)

`O=C(Nc1ccc(F)cc1)c1cc(NC(=O)C2C(c3cc(Cl)cc(Cl)c3)C2(Cl)Cl)ccc1F` (centres unmarked) [Compound 1003] and `O=C(Nc1ccc(F)cc1)c1cc(NC(=O)[C@H]2[C@H](c3cc(Cl)cc(Cl)c3)C2(Cl)Cl)ccc1F` [Compound 1090] cannot be ordered by EC50: 1 to 25 nM for the first, 1 to 10 nM for the second.

In the case of `O=C(Nc1ccc(F)cc1F)c1cc(NC(=O)[C@H]2[C@H](c3ccc(F)c(Cl)c3)C2(Cl)Cl)ccc1Cl` [Compound 1087], the EC50 is reported as 1 to 25 nM.

Reference: US20240316045A1, “CYCLOPROPYLAMIDE COMPOUNDS AGAINST PARASITES IN FISH” (Intervet Inc., priority 2021, published 2024)
